# Assay results published in US4277492A, “Novel 4-bis((Phenylmethyl)amino)-benzenesulfonic acids possessing antiviral activity” (priority 1980, dated 1981).
# Key:
# [1] = Cytotoxicity in tissue culture (monolayered HeLa cells); assay type: cell-based; conditions: human, observed at 48 and 72 hours post-treatment, read-out: Cytotoxicity (concentration of compound found to be toxic to the cell)
# Experimental: (§1) Monolayered HeLa cells in 16 millimeter (mm) tissue culture dishes were treated with 1 ml of culture medium (Eagles medium supplemented with fetal calf serum) containing compound at 100, 50, 25, 12.5, 6.25 or 0 μg/ml. Culture mediums such as those described herein are more fully described in standard tests, as for example, Kuchler's Biochemical Methods in Cell Culture and Virology, Dowden, Hutchinson and Ross, Inc., Stroudsberg, PA (1977). Immediately following treatment, cells were challenged with 0.05 ml of rhinovirus type 1A (RV-1A), rhinovirus type 2 (RV-2) or coxsackie A21 virus (Cox A21) in culture medium. Cell controls received no virus.
# *Cytotoxicity figures represent the concentration of compound (μg/ml)
# found to be toxic to the cell.
# [2] = tested on: rhinovirus type 1A (RV-1A); test: Tissue culture antiviral testing, RV-1A (viral cytopathic effect in HeLa cells); assay type: cell-based; conditions: Enterovirus, 48 and 72 hours post-treatment, read-out: Lowest concentration of compound necessary to cause a 50 percent reduction in cytopathic effect, RV-1A
# Experimental: as §1
# (§2) **Lowest concentration of compound (μg/ml) necessary to cause a 50
# (§3) percent reduction in cytopathic effect.
# rhinovirus type 2 (RV-2) = test: Tissue culture antiviral testing, RV-2 (viral cytopathic effect in HeLa cells); assay type: cell-based; conditions: Enterovirus, 48 and 72 hours post-treatment, read-out: Lowest concentration of compound necessary to cause a 50 percent reduction in cytopathic effect, RV-2
# Experimental: as §1, §2, §3
# [3] = tested on: coxsackie A21 virus (Cox A21); test: Tissue culture antiviral testing, Cox A21 (viral cytopathic effect in HeLa cells); assay type: cell-based; conditions: 48 and 72 hours post-treatment, read-out: Lowest concentration of compound necessary to cause a 50 percent reduction in cytopathic effect, Cox A21
# Experimental: as §1, §2, §3
# Cox A21 virus = test: Animal testing, mice challenged intraperitoneally with a normally lethal dose of Cox A21 virus; assay type: in vivo, Swiss male mice; conditions: 600 mg/kg PO; at the 95 percent confidence level
# Experimental: The subject compounds were also tested in animals as follows:
# Swiss male mice, 10-12 g in weight, were challenged intraperitoneally (IP) with 0.2 ml of a normally lethal dose, i.e., a virus dose sufficient to cause .congruent.80-100 percent mortality in infected animals within 10 days of challenge, of Cox A21 virus in phosphate buffered saline containing 1 percent heat inactivated fetal calf serum. Three hours later, mice were treated orally (PO) with 0.2 ml of compound suspended in 0.5 percent hydroxypropyl methylcellulose (Methocel) or with 0.2 ml of Methocel alone. The test compounds were administered at a 30 milligram/milliliter (mg/ml) concentration, which is a 600 milligram/kilogram (mg/kg) dosage. Mice were counted daily for 7-10 days post-challenge and deaths recorded. A modified Mantel-Haenzel combined chi-square (X^2) procedure was used to determine significant difference between virus control and treated groups. Chi-square values greater than 3.84 are considered significant (95 percent confidence level) in this test.
SMILES,EC50 [2],EC50 (rhinovirus type 2 (RV-2)),EC50 [3],MCC [1],Antiviral activity in testing with mice (in words) (Cox A21 virus)
"O=[N+]([O-])c1cccc(CN(Cc2cccc([N+](=O)[O-])c2)c2ccc(S(=O)(=O)O)cc2)c1 [Example 1, 4-(Bis((3-nitrophenyl)methyl)amino)benzenesulfonic Acid]",6.25 µg/mL,> 100 µg/mL,< 6.25 µg/mL,25 µg/mL,
"O=S(=O)(O)c1ccc(N(Cc2c(Cl)cccc2Cl)Cc2c(Cl)cccc2Cl)cc1 [Example 2, 4-(Bis((2,6-dichlorophenyl)methyl)amino)benzenesulfonic Acid]",6.25 µg/mL,12.5 µg/mL,< 6.25 µg/mL,12.5 µg/mL,
"O=S(=O)(O)c1ccc(N(Cc2ccc(F)cc2)Cc2ccc(F)cc2)cc1 [Example 3, 4-(Bis((4-fluorophenyl)methyl)amino)benzenesulfonic Acid]",12.5 µg/mL,> 100 µg/mL,< 6.25 µg/mL,100 µg/mL,active antiviral compounds in testing with mice
"O=S(=O)(O)c1ccc(N(Cc2ccc(F)cc2)Cc2ccc(Cl)cc2)cc1 [Example 4, 4-(((4-Chlorophenyl)methyl)((4-fluorophenyl)-methyl)amino)benzenesulfonic Acid]",50 µg/mL,> 100 µg/mL,< 6.25 µg/mL,50 µg/mL,active antiviral compounds in testing with mice
"O=S(=O)(O)c1ccc(N(Cc2ccc(Cl)cc2)Cc2ccc(Cl)cc2)cc1 [Example 5, 4-(Bis((4-chlorophenyl)methyl)amino)benzenesulfonic Acid]",12.5 µg/mL,> 100 µg/mL,< 6.25 µg/mL,25 µg/mL,active antiviral compounds in testing with mice

# More lines, main results first:
EC50 [2],EC50 (rhinovirus type 2 (RV-2)),EC50 [3],SMILES,MCC [1],Antiviral activity in testing with mice (in words) (Cox A21 virus)
> 50 µg/mL,> 100 µg/mL,< 6.25 µg/mL,"O=S(=O)(O)c1ccc(N(Cc2cccc(Cl)c2)Cc2cccc(Cl)c2)cc1 [Example 6, 4-(Bis((3-chlorophenyl)methyl)amino)benzenesulfonic Acid]",100 µg/mL,active antiviral compounds in testing with mice
12.5 µg/mL,> 100 µg/mL,< 6.25 µg/mL,"O=S(=O)(O)c1ccc(N(Cc2ccc(Br)cc2)Cc2ccc(Br)cc2)cc1 [Example 7, 4-(Bis((4-bromophenyl)methyl)amino)benzenesulfonic Acid]",25 µg/mL,active antiviral compounds in testing with mice
> 100 µg/mL,> 100 µg/mL,< 6.25 µg/mL,"O=S(=O)(O)c1ccc(N(Cc2ccccc2F)Cc2ccccc2F)cc1 [Example 8, 4-(Bis((2-fluorophenyl)methyl)amino)benzenesulfonic Acid]",100 µg/mL,
50 µg/mL,> 100 µg/mL,12.5 µg/mL,"O=S(=O)(O)c1ccc(N(Cc2cccc(F)c2)Cc2cccc(F)c2)cc1 [Example 9, 4-(Bis((3-fluorophenyl)methyl)amino)benzenesulfonic Acid]",100 µg/mL,active antiviral compounds in testing with mice
